In ChEMBL document CHEMBL3991601, “The target landscape of clinical kinase drugs” (Science, 2017) one finds Kd data, which are given here for ten compounds.

Active and inactive are the calls of the source.

In assay [1] the target is Dual specificity protein kinase CLK1 (Homo sapiens, UniProt P49759).
The target in assay [2] is Proto-oncogene tyrosine-protein kinase Src (Homo sapiens, UniProt P12931).
The target in assay [3] is Cyclin-dependent kinase 17 (Homo sapiens, UniProt Q00537).
In assay [4] the target is Dual specificity protein kinase CLK2 (Homo sapiens, UniProt P49760).
The target in assay [5] is Serine/threonine-protein kinase MRCK gamma (Homo sapiens, UniProt Q6DT37).
Serine/threonine-protein kinase MRCK gamma, sequence (Q6DT37 whole entry, the tested form may be a part): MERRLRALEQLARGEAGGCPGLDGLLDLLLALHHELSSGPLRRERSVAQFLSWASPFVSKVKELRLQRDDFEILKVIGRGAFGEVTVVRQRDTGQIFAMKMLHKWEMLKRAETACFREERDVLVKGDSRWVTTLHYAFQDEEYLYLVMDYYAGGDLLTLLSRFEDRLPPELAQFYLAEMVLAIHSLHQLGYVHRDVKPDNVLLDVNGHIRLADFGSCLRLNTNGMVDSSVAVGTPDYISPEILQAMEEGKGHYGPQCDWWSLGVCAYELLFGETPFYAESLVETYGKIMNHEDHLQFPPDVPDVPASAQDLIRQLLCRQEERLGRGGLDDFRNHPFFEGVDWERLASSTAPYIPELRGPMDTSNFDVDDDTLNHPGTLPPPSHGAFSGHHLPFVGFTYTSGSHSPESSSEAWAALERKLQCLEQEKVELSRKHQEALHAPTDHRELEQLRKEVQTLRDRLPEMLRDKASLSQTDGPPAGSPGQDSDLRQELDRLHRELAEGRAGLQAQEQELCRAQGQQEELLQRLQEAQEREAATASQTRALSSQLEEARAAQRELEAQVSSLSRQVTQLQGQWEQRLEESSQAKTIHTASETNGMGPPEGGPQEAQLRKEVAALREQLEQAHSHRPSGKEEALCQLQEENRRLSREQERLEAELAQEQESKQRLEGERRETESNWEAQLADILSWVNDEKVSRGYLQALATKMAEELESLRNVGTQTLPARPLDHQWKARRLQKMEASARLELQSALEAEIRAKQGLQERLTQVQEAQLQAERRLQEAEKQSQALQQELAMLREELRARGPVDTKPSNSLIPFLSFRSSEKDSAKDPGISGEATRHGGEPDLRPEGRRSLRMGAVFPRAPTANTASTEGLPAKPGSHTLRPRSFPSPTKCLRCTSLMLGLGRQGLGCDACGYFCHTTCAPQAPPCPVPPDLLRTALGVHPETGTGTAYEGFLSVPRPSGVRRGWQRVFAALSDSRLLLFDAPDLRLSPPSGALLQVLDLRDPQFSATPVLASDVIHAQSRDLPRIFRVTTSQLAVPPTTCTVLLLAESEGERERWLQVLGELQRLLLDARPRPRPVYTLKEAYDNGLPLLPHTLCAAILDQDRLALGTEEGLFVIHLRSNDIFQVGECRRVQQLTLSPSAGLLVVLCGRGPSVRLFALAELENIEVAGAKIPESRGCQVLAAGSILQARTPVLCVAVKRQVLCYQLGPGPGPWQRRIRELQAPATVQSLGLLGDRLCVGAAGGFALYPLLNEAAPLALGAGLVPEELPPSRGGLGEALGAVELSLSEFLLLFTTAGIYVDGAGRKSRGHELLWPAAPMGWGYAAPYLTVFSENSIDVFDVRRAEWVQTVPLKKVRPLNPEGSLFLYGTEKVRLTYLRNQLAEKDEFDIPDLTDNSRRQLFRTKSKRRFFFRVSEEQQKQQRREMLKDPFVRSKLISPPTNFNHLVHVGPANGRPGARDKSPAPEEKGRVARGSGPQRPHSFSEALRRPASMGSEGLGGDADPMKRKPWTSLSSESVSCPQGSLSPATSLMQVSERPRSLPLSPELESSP
Assay [6] deals with Uncharacterized aarF domain-containing protein kinase 5 (Homo sapiens, UniProt Q3MIX3).
For assay [7], the target named is Serine/threonine-protein kinase Nek7 (Homo sapiens, UniProt Q8TDX7).
Serine/threonine-protein kinase Nek7, sequence (Q8TDX7 whole entry): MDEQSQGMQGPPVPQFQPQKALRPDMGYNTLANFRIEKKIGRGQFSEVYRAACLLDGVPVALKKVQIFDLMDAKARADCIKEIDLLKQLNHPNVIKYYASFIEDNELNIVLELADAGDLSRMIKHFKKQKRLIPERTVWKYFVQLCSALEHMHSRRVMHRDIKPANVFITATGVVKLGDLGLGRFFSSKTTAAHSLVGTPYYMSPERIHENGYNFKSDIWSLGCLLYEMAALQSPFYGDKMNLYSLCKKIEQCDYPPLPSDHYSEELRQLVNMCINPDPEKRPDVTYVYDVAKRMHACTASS
Assay [8] concerns the target Midasin (Homo sapiens, UniProt Q9NU22).
The target of assay [9] is Proto-oncogene tyrosine-protein kinase receptor Ret (Homo sapiens, UniProt P07949).
In assay [10] the target is PAS domain-containing serine/threonine-protein kinase (Homo sapiens, UniProt Q96RG2).
PAS domain-containing serine/threonine-protein kinase, sequence (Q96RG2 whole entry, the tested form may be a part): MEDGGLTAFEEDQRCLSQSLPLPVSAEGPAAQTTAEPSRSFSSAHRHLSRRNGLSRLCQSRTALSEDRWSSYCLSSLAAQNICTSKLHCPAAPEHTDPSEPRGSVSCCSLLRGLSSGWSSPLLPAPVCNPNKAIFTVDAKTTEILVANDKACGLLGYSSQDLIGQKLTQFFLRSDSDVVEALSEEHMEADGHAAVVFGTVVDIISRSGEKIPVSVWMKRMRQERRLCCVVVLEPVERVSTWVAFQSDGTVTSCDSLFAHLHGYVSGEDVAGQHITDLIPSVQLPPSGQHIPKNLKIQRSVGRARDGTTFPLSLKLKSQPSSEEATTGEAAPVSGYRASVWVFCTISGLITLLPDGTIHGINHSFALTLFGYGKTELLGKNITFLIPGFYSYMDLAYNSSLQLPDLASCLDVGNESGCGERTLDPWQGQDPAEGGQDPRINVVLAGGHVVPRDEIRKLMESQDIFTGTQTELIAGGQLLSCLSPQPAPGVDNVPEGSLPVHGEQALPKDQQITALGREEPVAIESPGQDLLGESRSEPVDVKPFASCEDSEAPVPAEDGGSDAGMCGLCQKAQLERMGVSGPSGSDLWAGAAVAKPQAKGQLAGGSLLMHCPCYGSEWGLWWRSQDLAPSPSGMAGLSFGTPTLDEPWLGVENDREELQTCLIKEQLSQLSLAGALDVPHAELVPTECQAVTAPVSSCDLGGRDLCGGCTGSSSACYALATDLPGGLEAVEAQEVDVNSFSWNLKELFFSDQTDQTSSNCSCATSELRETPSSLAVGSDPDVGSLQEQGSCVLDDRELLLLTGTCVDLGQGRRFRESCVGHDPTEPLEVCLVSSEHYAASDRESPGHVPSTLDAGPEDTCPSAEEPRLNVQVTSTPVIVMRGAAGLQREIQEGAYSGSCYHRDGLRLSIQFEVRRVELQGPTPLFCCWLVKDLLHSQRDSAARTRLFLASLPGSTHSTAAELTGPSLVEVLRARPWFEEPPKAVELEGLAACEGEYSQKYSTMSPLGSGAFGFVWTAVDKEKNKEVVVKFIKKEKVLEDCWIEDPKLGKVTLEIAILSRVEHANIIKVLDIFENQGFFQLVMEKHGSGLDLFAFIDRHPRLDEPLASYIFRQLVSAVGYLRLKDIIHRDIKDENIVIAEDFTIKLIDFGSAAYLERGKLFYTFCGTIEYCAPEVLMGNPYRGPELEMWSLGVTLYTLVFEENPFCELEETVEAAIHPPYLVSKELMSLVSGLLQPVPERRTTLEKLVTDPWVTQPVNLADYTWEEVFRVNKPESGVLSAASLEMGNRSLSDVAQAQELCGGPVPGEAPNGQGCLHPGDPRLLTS
Assay [11] addresses Dual specificity testis-specific protein kinase 2 (Homo sapiens, UniProt Q96S53).
Assay [12] concerns the target T1, Adenine phosphoribosyltransferase (Homo sapiens, UniProt P07741).
T1 sequence (P07741 whole entry): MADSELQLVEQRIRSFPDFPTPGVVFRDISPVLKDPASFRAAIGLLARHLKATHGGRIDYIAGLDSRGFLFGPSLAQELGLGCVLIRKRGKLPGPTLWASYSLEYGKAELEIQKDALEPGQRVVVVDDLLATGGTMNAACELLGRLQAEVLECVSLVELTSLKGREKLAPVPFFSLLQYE

Assay [13] concerns the target cAMP-dependent protein kinase catalytic subunit beta (Homo sapiens, UniProt P22694).
Assay [14] has as its target T2, Aurora kinase A (Homo sapiens, UniProt O14965).
T2 sequence (O14965 whole entry): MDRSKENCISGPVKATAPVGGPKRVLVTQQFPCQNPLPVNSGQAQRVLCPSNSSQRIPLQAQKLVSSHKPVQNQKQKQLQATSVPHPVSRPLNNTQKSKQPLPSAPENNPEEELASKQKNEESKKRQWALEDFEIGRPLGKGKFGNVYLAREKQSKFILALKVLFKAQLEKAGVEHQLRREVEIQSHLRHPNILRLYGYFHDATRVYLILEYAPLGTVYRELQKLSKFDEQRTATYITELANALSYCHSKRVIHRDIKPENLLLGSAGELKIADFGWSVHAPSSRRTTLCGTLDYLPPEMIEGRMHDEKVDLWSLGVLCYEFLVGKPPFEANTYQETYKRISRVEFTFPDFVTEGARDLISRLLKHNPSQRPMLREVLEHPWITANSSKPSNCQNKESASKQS

For assay [15], the target named is Serine/threonine-protein kinase PAK 6 (Homo sapiens, UniProt Q9NQU5).
The target in assay [16] is T3, Cyclin-dependent kinase-like 5 (Homo sapiens, UniProt O76039).
T3 sequence (O76039 whole entry): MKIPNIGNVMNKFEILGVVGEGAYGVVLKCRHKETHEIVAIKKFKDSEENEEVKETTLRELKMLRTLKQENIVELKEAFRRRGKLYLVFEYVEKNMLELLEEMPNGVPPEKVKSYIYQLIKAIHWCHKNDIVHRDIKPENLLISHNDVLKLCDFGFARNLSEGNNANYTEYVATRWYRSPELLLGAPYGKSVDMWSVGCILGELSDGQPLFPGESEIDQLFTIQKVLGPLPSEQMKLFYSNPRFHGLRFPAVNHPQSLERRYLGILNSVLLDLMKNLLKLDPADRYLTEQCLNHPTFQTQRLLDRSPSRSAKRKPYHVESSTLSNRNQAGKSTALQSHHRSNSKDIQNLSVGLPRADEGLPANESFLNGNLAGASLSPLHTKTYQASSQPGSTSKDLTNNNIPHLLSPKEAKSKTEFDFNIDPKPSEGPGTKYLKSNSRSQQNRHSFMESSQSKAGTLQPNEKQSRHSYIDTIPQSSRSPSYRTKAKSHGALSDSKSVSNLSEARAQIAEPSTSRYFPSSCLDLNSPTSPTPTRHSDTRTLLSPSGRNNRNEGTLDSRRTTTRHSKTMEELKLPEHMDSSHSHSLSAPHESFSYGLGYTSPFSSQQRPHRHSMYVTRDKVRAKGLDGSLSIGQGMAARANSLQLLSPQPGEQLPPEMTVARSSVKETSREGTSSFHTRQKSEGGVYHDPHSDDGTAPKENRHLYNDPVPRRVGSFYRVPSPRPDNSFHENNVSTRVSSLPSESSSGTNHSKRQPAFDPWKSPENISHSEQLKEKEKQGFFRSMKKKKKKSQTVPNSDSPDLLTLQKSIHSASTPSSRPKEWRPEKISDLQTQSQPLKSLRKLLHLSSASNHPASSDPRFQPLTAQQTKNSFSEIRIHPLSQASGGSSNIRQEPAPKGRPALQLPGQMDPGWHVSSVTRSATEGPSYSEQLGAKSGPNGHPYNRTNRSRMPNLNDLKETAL
Further: in the data inactive means no Kd found up to 30 µM.

Dual specificity protein kinase CLK1, sequence (P49759 whole entry): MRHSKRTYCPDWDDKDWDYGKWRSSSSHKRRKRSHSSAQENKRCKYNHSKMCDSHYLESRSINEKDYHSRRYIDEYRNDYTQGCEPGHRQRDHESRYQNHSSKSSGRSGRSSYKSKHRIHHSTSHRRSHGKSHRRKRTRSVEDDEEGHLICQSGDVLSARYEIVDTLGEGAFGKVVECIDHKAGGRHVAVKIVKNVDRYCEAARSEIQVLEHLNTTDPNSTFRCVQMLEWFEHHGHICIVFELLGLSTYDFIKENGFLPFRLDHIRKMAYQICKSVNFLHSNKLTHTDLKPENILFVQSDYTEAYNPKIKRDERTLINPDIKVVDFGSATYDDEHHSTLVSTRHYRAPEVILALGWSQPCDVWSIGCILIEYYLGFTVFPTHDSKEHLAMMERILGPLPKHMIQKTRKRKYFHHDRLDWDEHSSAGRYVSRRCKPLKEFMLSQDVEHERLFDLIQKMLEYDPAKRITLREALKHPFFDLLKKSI
Cyclin-dependent kinase 17, sequence (Q00537 whole entry): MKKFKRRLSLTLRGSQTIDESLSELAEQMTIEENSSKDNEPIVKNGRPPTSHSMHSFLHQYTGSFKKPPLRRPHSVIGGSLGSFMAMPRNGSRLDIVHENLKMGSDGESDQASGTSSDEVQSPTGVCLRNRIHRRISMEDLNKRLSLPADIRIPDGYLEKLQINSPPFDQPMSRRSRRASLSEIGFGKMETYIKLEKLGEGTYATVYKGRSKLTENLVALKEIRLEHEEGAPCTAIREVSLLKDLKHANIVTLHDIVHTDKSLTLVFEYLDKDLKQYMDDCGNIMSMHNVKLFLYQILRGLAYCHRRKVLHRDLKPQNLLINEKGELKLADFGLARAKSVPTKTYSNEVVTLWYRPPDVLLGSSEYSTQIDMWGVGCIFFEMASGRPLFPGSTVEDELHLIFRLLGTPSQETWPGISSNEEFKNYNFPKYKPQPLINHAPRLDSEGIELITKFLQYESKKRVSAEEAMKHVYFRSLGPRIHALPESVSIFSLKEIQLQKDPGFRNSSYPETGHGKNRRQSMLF
Dual specificity testis-specific protein kinase 2, sequence (Q96S53 whole entry): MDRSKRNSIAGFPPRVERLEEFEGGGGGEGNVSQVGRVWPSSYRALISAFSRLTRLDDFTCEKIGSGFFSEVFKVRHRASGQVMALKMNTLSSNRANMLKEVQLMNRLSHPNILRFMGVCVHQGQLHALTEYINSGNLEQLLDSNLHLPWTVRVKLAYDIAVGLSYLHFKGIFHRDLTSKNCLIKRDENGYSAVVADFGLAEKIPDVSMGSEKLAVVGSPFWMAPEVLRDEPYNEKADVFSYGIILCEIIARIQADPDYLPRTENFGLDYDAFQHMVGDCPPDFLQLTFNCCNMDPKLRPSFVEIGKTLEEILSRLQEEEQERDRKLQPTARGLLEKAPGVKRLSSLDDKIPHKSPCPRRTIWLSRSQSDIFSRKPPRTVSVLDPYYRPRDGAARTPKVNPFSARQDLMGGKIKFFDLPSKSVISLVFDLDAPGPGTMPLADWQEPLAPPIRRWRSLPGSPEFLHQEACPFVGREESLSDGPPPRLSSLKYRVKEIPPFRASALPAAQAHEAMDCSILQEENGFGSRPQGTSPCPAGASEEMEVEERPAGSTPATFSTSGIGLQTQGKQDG

One may read the Kd as the equilibrium constant for the complex coming apart. Take `CC[C@@H]1C(=O)N(C)c2cnc(Nc3ccc(C(=O)N[C@H]4CC[C@H](N5CCN(CC6CC6)CC5)CC4)cc3OC)nc2N1C(C)C` [VOLASERTIB]: the Kd in assay [1], in [2], in assay [3], in assay [4], in assay [5] and in [6] was > 30 µM (inactive) each time. In addition, the Kd in [7], in assay [8], in [9], in assay [10], in assay [11] and in assay [12] was > 30 µM (inactive) each time. In addition, the Kd in [13] and in assay [14] was > 30 µM (inactive) in each case.
As to `CO[C@H]1C[C@@H]2CC[C@@H](C)[C@@](O)(O2)C(=O)C(=O)N2CCCC[C@H]2C(=O)O[C@H]([C@H](C)C[C@@H]2CC[C@@H](OCCO)[C@H](OC)C2)CC(=O)[C@H](C)/C=C(\C)[C@@H](O)[C@@H](OC)C(=O)[C@H](C)C[C@H](C)/C=C/C=C/C=C/1C` [EVEROLIMUS], the Kd in [1], in [2], in assay [3], in assay [4], in assay [5] and in assay [7] was > 30 µM (inactive) in each case. Further, the Kd in assay [8], in assay [9], in [10], in [11], in assay [12] and in assay [13] was > 30 µM (inactive) each time. For the same compound, in assay [14], the Kd is > 30 µM (inactive).
In the case of `CCCS(=O)(=O)Nc1ccc(F)c(C(=O)c2c[nH]c3ncc(-c4ccc(Cl)cc4)cc23)c1F` [VEMURAFENIB], the Kd in [1], in assay [2], in assay [3], in assay [4], in assay [5] and in [6] was > 30 µM (inactive) in each case. In addition, the Kd in assay [7], in [8], in [9], in [11], in assay [12] and in assay [13] was > 30 µM (inactive) each time. For the same compound, the Kd in [14] was > 30 µM (inactive).
For `CNS(=O)(=O)Nc1nccc(Cc2c(C)c3ccc(Oc4ncccn4)cc3oc2=O)c1F` [AVUTOMETINIB], the Kd in assay [1], in assay [2], in assay [3], in [4], in assay [5] and in assay [6] was > 30 µM (inactive) throughout. In addition, the Kd in [7], in assay [8], in assay [9], in [10], in assay [11] and in assay [12] was > 30 µM (inactive) throughout. Besides, the Kd in assay [13] and in assay [14] was > 30 µM (inactive) in each case.
In the case of `COc1cc2nccc(Oc3ccc(NC(=O)NC4CC4)c(Cl)c3)c2cc1C(N)=O` [LENVATINIB], the Kd in assay [1], in assay [3], in assay [4], in assay [5], in [6] and in [7] was > 30 µM (inactive) throughout. For the same compound, the Kd in assay [8], in assay [10], in assay [12] and in assay [13] was > 30 µM (inactive) throughout.
In the case of `COc1cc(N2CCC(N3CCN(C)CC3)CC2)ccc1Nc1ncnc(Nc2ccccc2S(=O)(=O)C(C)C)n1` [ASP-3026], the Kd in assay [1], in [2], in assay [3], in [15], in assay [4] and in assay [16] was > 30 µM (inactive) throughout. Also, the Kd in [5], in [6], in [8], in assay [9], in assay [13] and in [14] was > 30 µM (inactive) throughout.
On to `Cc1nc(N)sc1-c1ccnc(Nc2ccc(N3CCOCC3)cc2)n1` [CYC-116], for which the Kd was 0.586 µM (active) in assay [1]; 0.007 µM (active) in [3]; > 30 µM (inactive) in assay [7]; > 30 µM (inactive) in assay [8]; > 30 µM (inactive) in assay [10]; > 30 µM (inactive) in assay [11]. Also, the Kd in assay [12] is > 30 µM (inactive).
For the compound `CNC(=O)c1cc(Oc2ccc(NC(=O)Nc3ccc(Cl)c(C(F)(F)F)c3)c(F)c2)ccn1` [REGORAFENIB], the Kd is 2.11 µM (active) in assay [1]; > 30 µM (inactive) in assay [2]; 0.719 µM (active) in [3]; > 30 µM (inactive) in assay [4]; > 30 µM (inactive) in assay [5]; > 30 µM (inactive) in [7]. The Kd in [8], in [10], in [11], in assay [12], in assay [13] and in [14] was > 30 µM (inactive) each time.
In the case of `CC[C@H](Nc1ncnc2[nH]cnc12)c1nc2cccc(F)c2c(=O)n1-c1ccccc1` [IDELALISIB], the Kd in assay [1], in assay [2], in assay [3], in assay [15], in assay [4] and in assay [16] was > 30 µM (inactive) throughout. Further, the Kd in [5], in assay [6], in assay [8], in assay [9], in assay [10] and in assay [11] was > 30 µM (inactive) throughout. Moreover, the Kd in [12], in [13] and in assay [14] was > 30 µM (inactive) throughout.
`CN1N=C(N)c2cn([C@@H]3O[C@H](COP(=O)(O)O)[C@@H](O)[C@H]3O)c3ncnc1c23` [TRICIRIBINE PHOSPHATE]: the Kd in assay [2], in [5], in assay [7], in assay [8], in assay [9] and in assay [12] was > 30 µM (inactive) in each case. Moreover, the Kd in [13] and in [14] was > 30 µM (inactive) each time.
